Tested on: C.sporogenes spores ATCC 3584
Assay: In-vitro removal of spores from Vitro-Skin (finger bag collection method)
Details: Example 4
Source text: The in-vitro method was designed to evaluate the removal of microbes from skin using a synthetic skin material from the cosmetic industry, Vitro-skin from IMS inc, Portland MeThis method enables rapid screening of formulations for their propensity to promote release of microbes from skin and may be predictive of in-vivo activity.
The following materials were utilized. C.sporogenes spores ATCC 3584˜1.0×10̂8 CFU/ml; Triton-X 100 sampling buffer (pH 7.4) Filter Sterilized: 0.4 g KH2PO4, 10.1 g Na2HPO4, 1 g Triton-X 100, and 1 L dH2O; D/E neutralizing broth; Fingers from disposable polyethylene gloves (VWR 32915-268); Sterile dH2O (WFI quality water); 3M AC Petrifilm; and 5 ml Falcon tubes; 1.5 ml EPI Centrifuge tubes; Petri Dishes; Vitro-Skin IMS Inc.; and double-sided tape.
The method included the following. Punched-out specified number of Vitro-Skin samples using the ¾″ punch. Attached punch-out Vitro-Skin samples to a Petri-dish or any other sterile flat surface using double-sided tape. Contaminated the Vitro-Skin samples accordingly with 10μl of spores/spore prep (˜1×10̂6 CFU/Sample). Used the pipette tip to spread spores over the surface and used a new pipette tip for each sample. Allowed the samples to dry (˜40 minutes). […]
For best statistical data each test solution was repeated 3 times. […] Counted plates and analyzed data.

## N=C(NCCCCCCNC(=N)NC(=N)Nc1ccc(Cl)cc1)NC(=N)Nc1ccc(Cl)cc1.O=C(O)[C@H](O)[C@@H](O)[C@H](O)[C@H](O)CO.O=C(O)[C@H](O)[C@@H](O)[C@H](O)[C@H](O)CO [CHG, Chlorhexidine gluconate]
  spore removal (in words): poor spore removal

Source: patent publication US20180369118A1, “METHODS FOR SPORE REMOVAL” (3M INNOVATIVE PROPERTIES COMPANY, priority 2015, published 2018)
